Experimental findings from patent US10059713B2 (Takeda Pharmaceutical Company Limited, priority 2014, dated 2018) are described below.

This test deals with human GPR43 (Homo sapiens (Human), UniProt O15552). Briefly: Ca-Flux functional assay: determination of agonist/positive allosteric modulator (PAM) activity. Type of test: cell-based. The conditions noted are these: CHO-K1 Gα16 cells stably expressing human GPR43; compound added with EC20 sodium acetate; intracellular Ca2+ by FLIPR; does not distinguish agonist from PAM. In outline: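 CHO-K1 Gα16 cells stably expressing human GPR43, loaded with Calcium 5 dye 1 h; compounds (10-point half-log from 10 μM) added with sodium acetate at EC20. FLIPR calcium signal gave EC50, two wells per point; agonists and PAMs not distinguished.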

Molecules are shown by their SMILES. pEC50: −log10 of the molar value.

human GPR43, sequence (O15552 whole entry): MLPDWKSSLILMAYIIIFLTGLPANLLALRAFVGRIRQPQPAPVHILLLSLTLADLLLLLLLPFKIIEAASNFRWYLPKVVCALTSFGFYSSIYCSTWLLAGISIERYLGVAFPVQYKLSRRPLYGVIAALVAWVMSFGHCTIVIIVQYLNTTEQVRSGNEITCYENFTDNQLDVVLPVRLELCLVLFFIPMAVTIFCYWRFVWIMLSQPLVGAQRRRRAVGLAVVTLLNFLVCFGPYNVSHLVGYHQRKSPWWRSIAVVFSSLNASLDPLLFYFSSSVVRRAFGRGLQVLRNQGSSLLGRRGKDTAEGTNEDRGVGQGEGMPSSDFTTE

Take `Cc1nc(OC(C)C(F)(F)F)c2[nH]c(N)c(S(=O)(=O)c3ccccc3F)c2n1` (stereo not drawn) [Example 274, 7-(2-fluorobenzenesulfonyl)-2-methyl-4-[(1,1,1-trifluoropropan-2-yl)oxy]-5H-pyrrolo[3,2-d]pyrimidin-6-amine]: the pEC50 (in general, −log10 of the EC50, conventionally taken in molar units) is 8.10.

In the case of `Cc1nc(N2CCO[C@H](C(F)(F)F)C2)c2[nH]c(N)c(S(=O)(=O)c3ccccc3F)c2n1` [Example 281, 7-(2-fluorobenzenesulfonyl)-2-methyl-4-[(2S)-2-(trifluoromethyl)morpholin-4-yl]-5H-pyrrolo[3,2-d]pyrimidin-6-amine], the pEC50 was 9.00.

For `Nc1[nH]c2c(N3CC4CCC(C3)O4)ncnc2c1S(=O)(=O)c1ccccc1` [Example 132, 7-(benzenesulfonyl)-4-{8-oxa-3-azabicyclo[3.2.1]octan-3-yl}-5H-pyrrolo[3,2-d]pyrimidin-6-amine], the pEC50 was 5.82.

The compound `CC1CN(c2ncnc3c(S(=O)(=O)c4ccc(C(F)(F)F)cc4)c(N)[nH]c23)CCO1` (stereo not drawn) [Example 136, 4-(2-methylmorpholin-4-yl)-7-[4-(trifluoromethyl)benzenesulfonyl]-5H-pyrrolo[3,2-d]pyrimidin-6-amine] gave a pEC50 of 6.93.

As for `Nc1[nH]c2cc(Cl)cnc2c1S(=O)(=O)c1ccccc1` [Example 10, 3-(benzenesulfonyl)-6-chloro-1H-pyrrolo[3,2-b]pyridin-2-amine], the pEC50 was 6.20.

In the case of `Cc1nc(N2CCOC(C)C2)c2[nH]c(N)c(S(=O)(=O)c3cc(F)ccc3F)c2n1` (stereo not drawn) [Example 229, 7-(2,5-difluorobenzenesulfonyl)-2-methyl-4-(2-methylmorpholin-4-yl)-5H-pyrrolo[3,2-d]pyrimidin-6-amine], the pEC50 is 8.15.

Regarding `COc1ccc(S(=O)(=O)c2c(N)[nH]c3c(N4CCOC(C)C4)ncnc23)cc1F` (stereo not drawn) [Example 124, 7-(3-fluoro-4-methoxybenzenesulfonyl)-4-(2-methylmorpholin-4-yl)-5H-pyrrolo[3,2-d]pyrimidin-6-amine], the pEC50 is 7.20.

`CC1CN(c2ncnc3c(S(=O)(=O)C4CCN(C(=O)OCc5ccccc5)CC4)c(N)[nH]c23)CCO1` (stereo not drawn) [Example 206, benzyl 4-{[6-amino-4-(2-methylmorpholin-4-yl)-5H-pyrrolo[3,2-d]pyrimidin-7-yl]sulfonyl}piperidine-1-carboxylate] showed a negative logarithm of the EC50 (pEC50) of 5.58.

Regarding `Nc1[nH]c2c(N3CCOCC3)ncnc2c1S(=O)(=O)c1ccccc1` [Example 6, 7-(benzenesulfonyl)-4-(morpholin-4-yl)-5H-pyrrolo[3,2-d]pyrimidin-6-amine], the pEC50 was 6.56.

`CC1CN(c2ncnc3c(S(=O)(=O)c4ccc(Cl)c(F)c4)c(N)[nH]c23)CCO1` (stereo not drawn) [Example 143, 7-(4-chloro-3-fluorobenzenesulfonyl)-4-(2-methylmorpholin-4-yl)-5H-pyrrolo[3,2-d]pyrimidin-6-amine] had a pEC50 of 7.46.

Turning to `Nc1[nH]c2c(C3CCCCC3)nncc2c1S(=O)(=O)c1ccccc1` [Example 228, 3-(benzenesulfonyl)-7-cyclohexyl-1H-pyrrolo[2,3-d]pyridazin-2-amine], the pEC50 was 6.59.

With `COc1ccc(S(=O)(=O)c2c(N)[nH]c3c(N4CCC(F)(F)CC4)ncnc23)cc1` [Example 68, 4-(4,4-difluoropiperidin-1-yl)-7-(4-methoxybenzenesulfonyl)-5H-pyrrolo[3,2-d]pyrimidin-6-amine], the pEC50 is 7.49.

`Nc1[nH]c2c(N3CCCC(F)(F)C3)ncnc2c1S(=O)(=O)c1ccccc1` [Example 34, 7-(benzenesulfonyl)-4-(3,3-difluoropiperidin-1-yl)-5H-pyrrolo[3,2-d]pyrimidin-6-amine] gave a negative logarithm of the EC50 (pEC50) of 7.05.

As for `Cc1csc(COc2ncnc3c(S(=O)(=O)c4ccccc4)c(N)[nH]c23)n1` [Example 161, 7-(benzenesulfonyl)-4-[(4-methyl-1,3-thiazol-2-yl)methoxy]-5H-pyrrolo[3,2-d]pyrimidin-6-amine], the pEC50 is 5.85.

The compound `Nc1[nH]c2c(C3CCCCC3)ncnc2c1S(=O)(=O)c1ccccc1F` [Example 89, 4-cyclohexyl-7-(2-fluorobenzenesulfonyl)-5H-pyrrolo[3,2-d]pyrimidin-6-amine] gave a pEC50 of 7.96.

Take `Nc1[nH]c2c(OCC3CCCCC3)ncnc2c1S(=O)(=O)c1ccccc1` [Example 165, 7-(benzenesulfonyl)-4-(cyclohexylmethoxy)-5H-pyrrolo[3,2-d]pyrimidin-6-amine]: the pEC50 is 7.14.

On to `Cc1nc(N2CCC3(CC2)CC3)c2[nH]c(N)c(S(=O)(=O)c3ccccc3)c2n1` [Example 207, 4-{6-azaspiro[2.5]octan-6-yl}-7-(benzenesulfonyl)-2-methyl-5H-pyrrolo[3,2-d]pyrimidin-6-amine], for which the pEC50 is 7.57.

As to `COc1ccc(S(=O)(=O)c2c(N)[nH]c3c(N4CCO[C@H](C(F)(F)F)C4)nc(C)nc23)c(F)c1` [Example 282, 7-(2-fluoro-4-methoxybenzenesulfonyl)-2-methyl-4-[(2S)-2-(trifluoromethyl)morpholin-4-yl]-5H-pyrrolo[3,2-d]pyrimidin-6-amine], the pEC50 is 9.00.

Take `Nc1[nH]c2c(C3=CCCCC3)cncc2c1S(=O)(=O)c1ccccc1` [Example 16, 3-(benzenesulfonyl)-7-(cyclohex-1-en-1-yl)-1H-pyrrolo[3,2-c]pyridin-2-amine]: the pEC50 is 7.68.

Compound `CC1CN(c2ncnc3c(S(=O)(=O)Cc4ccccc4)c(N)[nH]c23)CCO1` (stereo not drawn) [Example 125, 4-(2-methylmorpholin-4-yl)-7-phenylmethanesulfonyl-5H-pyrrolo[3,2-d]pyrimidin-6-amine] showed a pEC50 of 5.26.

`Cc1nc(N2CCOC(C)(C)C2)c2[nH]c(N)c(S(=O)(=O)c3cc(F)ccc3F)c2n1` [Example 288, 7-(2,5-difluorobenzenesulfonyl)-4-(2,2-dimethylmorpholin-4-yl)-2-methyl-5H-pyrrolo[3,2-d]pyrimidin-6-amine] gave a pEC50 of 8.10.

Compound `CN(CC1CCCCO1)c1ncnc2c(S(=O)(=O)c3ccccc3)c(N)[nH]c12` (stereo not drawn) [Example 91, 7-(benzenesulfonyl)-4-N-methyl-4-N-(oxan-2-ylmethyl)-5H-pyrrolo[3,2-d]pyrimidine diamine] had a pEC50 of 5.85.

Compound `CN(Cc1ccccn1)c1ncnc2c(S(=O)(=O)c3ccccc3)c(N)[nH]c12` [Example 95, 7-(benzenesulfonyl)-4-N-methyl-4-N-(pyridin-2-ylmethyl)-5H-pyrrolo[3,2-d]pyrimidine-4,6-diamine] gave a pEC50 of 5.15.

For the compound `Cc1nc(OC(C)C2CCCC2)c2[nH]c(N)c(S(=O)(=O)c3ccccc3)c2n1` (stereo not drawn) [Example 247, 7-(benzenesulfonyl)-4-(1-cyclopentylethoxy)-2-methyl-5H-pyrrolo[3,2-d]pyrimidin-6-amine], the pEC50 is 7.80.

Consider `Cc1nc(N2CCO[C@@H](CF)C2)c2[nH]c(N)c(S(=O)(=O)c3ccccc3F)c2n1` [Example 299, 7-(2-fluorobenzenesulfonyl)-4-[(2R)-2-(fluoromethyl)morpholin-4-yl]-2-methyl-5H-pyrrolo[3,2-d]pyrimidin-6-amine], for which the pEC50 is 9.00.

As for `Cc1ccc(S(=O)(=O)c2c(N)[nH]c3c(C4CCCCC4)ncnc23)cc1` [Example 45, 4-cyclohexyl-7-[(4-methylbenzene)sulfonyl]-5H-pyrrolo[3,2-d]pyrimidin-6-amine], the pEC50 was 7.08.

`Nc1[nH]c2c(OCC3CCOC3)ncnc2c1S(=O)(=O)c1ccccc1` (stereo not drawn) [Example 119, 7-(benzenesulfonyl)-4-(oxolan-3-ylmethoxy)-5H-pyrrolo[3,2-d]pyrimidin-6-amine] showed a pEC50 of 5.53.

As to `Cc1nc(OCC2CCC2)c2[nH]c(N)c(S(=O)(=O)c3ccccc3)c2n1` [Example 249, 7-(benzenesulfonyl)-4-(cyclobutylmethoxy)-2-methyl-5H-pyrrolo[3,2-d]pyrimidin-6-amine], the pEC50 was 7.51.

Compound `C[C@@H]1CN(c2ncnc3c(S(=O)(=O)c4ccccc4)c(N)[nH]c23)CCO1` [Example 137, 7-(benzenesulfonyl)-4-[(2R)-2-methylmorpholin-4-yl]-5H-pyrrolo[3,2-d]pyrimidin-6-amine] had a pEC50 of 7.28.

Consider `Nc1[nH]c2c(C3=CCCCC3)ncnc2c1S(=O)(=O)c1ccc(F)cc1` [Example 26, 4-(cyclohex-1-en-1-yl)-7-[(4-fluorobenzene)sulfonyl]-5H-pyrrolo[3,2-d]pyrimidin-6-amine], for which the pEC50 was 7.34.

Regarding `C=C(C)c1nc(C)nc2c(S(=O)(=O)c3ccccc3)c(N)[nH]c12` [Example 149, 7-(benzenesulfonyl)-2-methyl-4-(prop-1-en-2-yl)-5H-pyrrolo[3,2-d]pyrimidin-6-amine], the pEC50 is 6.60.

`Cc1nc(OC2CCC2)c2[nH]c(N)c(S(=O)(=O)c3ccccc3F)c2n1` [Example 260, 4-cyclobutoxy-7-(2-fluorobenzenesulfonyl)-2-methyl-5H-pyrrolo[3,2-d]pyrimidin-6-amine]: the pEC50 is 8.00.

In turn, `COc1ccc(S(=O)(=O)c2c(N)[nH]c3c(C4=CCCCC4)ncnc23)cc1` [Example 4, 4-(cyclohex-1-en-1-yl)-7-[(4-methoxybenzene)sulfonyl]-5H-pyrrolo[3,2-d]pyrimidin-6-amine] had a negative logarithm of the EC50 (pEC50) of 7.60.

Turning to `Cc1nc(N2CCOC(C)C2)c2[nH]c(N)c(S(=O)(=O)c3c(F)cccc3F)c2n1` (stereo not drawn) [Example 263, 7-(2,6-difluorobenzenesulfonyl)-2-methyl-4-(2-methylmorpholin-4-yl)-5H-pyrrolo[3,2-d]pyrimidin-6-amine], the pEC50 was 8.22.

For `CCC1(C)CN(c2ncnc3c(S(=O)(=O)c4ccccc4)c(N)[nH]c23)CCO1` (stereo not drawn) [Example 221, 7-(benzenesulfonyl)-4-(2-ethyl-2-methylmorpholin-4-yl)-5H-pyrrolo[3,2-d]pyrimidin-6-amine], the pEC50 is 6.98.

`Cc1nc(N2CCO[C@H](C(F)(F)F)C2)c2[nH]c(N)c(S(=O)(=O)c3c(F)cccc3F)c2n1` [Example 294, 7-(2,6-Difluorobenzenesulfonyl)-2-methyl-4-[(2S)-2-(trifluoromethyl)morpholin-4-yl]-5H-pyrrolo[3,2-d]pyrimidin-6-amine] gave a pEC50 of 8.40.
